Data published in the NIST ThermoML archive (doi:10.1016/j.jct.2012.06.030).
± gives the expanded uncertainty stated by the source.

Test: molar heat capacity at constant pressure; xn = mol fraction of the nth substance listed
Details: 101 kPa, Liquid, Small sample (50 mg) DSC

CCCCCC[n+]1ccc2ccccc2c1.N#C[S-] [2-hexylisoquinolinium thiocyanate] + O
molar heat capacity at constant pressure [J/K/mol]
Details | x1 = 0.2887 | x1 = 0.4013 | x1 = 0.5043 | x1 = 0.6059 | x1 = 0.6997 | x1 = 0.7864 | x1 = 0.8824 | x1 = 1
288.15 K | 189 ± 8 | 220 ± 9 | 265 ± 11 | 298 ± 13 | 333 ± 14 | 347 ± 15 | 390 ± 17 | 433 ± 18
293.15 K | 191 ± 8 | 222 ± 9 | 267 ± 11 | 300 ± 13 | 335 ± 14 | 350 ± 15 | 392 ± 17 | 436 ± 19
298.15 K | 192 ± 8 | 224 ± 10 | 269 ± 11 | 302 ± 13 | 337 ± 14 | 352 ± 15 | 395 ± 17 | 439 ± 19
303.15 K | 193 ± 8 | 225 ± 10 | 271 ± 12 | 304 ± 13 | 340 ± 14 | 354 ± 15 | 397 ± 17 | 442 ± 19
308.15 K | 195 ± 8 | 226 ± 10 | 272 ± 12 | 306 ± 13 | 341 ± 14 | 357 ± 15 | 400 ± 17 | 445 ± 19
313.15 K | 196 ± 8 | 228 ± 10 | 274 ± 12 | 308 ± 13 | 343 ± 15 | 359 ± 15 | 402 ± 17 | 447 ± 19
318.15 K | 197 ± 8 | 229 ± 10 | 276 ± 12 | 309 ± 13 | 346 ± 15 | 361 ± 15 | 404 ± 17 | 450 ± 19
323.15 K | 198 ± 8 | 230 ± 10 | 277 ± 12 | 311 ± 13 | 348 ± 15 | 363 ± 15 | 406 ± 17 | 453 ± 19
328.15 K | 198 ± 8 | 232 ± 10 | 278 ± 12 | 312 ± 13 | 350 ± 15 | 365 ± 15 | 409 ± 17 | 456 ± 19
333.15 K | 199 ± 8 | 233 ± 10 | 280 ± 12 | 314 ± 13 | 352 ± 15 | 367 ± 16 | 411 ± 17 | 458 ± 19
338.15 K | 200 ± 9 | 234 ± 10 | 281 ± 12 | 316 ± 13 | 353 ± 15 | 369 ± 16 | 413 ± 18 | 461 ± 20
343.15 K | 201 ± 9 | 235 ± 10 | 283 ± 12 | 318 ± 14 | 355 ± 15 | 371 ± 16 | 415 ± 18 | 463 ± 20
